Test results as given in paper PMC5933261, “A phase 1 dose-escalation study of veliparib with bimonthly FOLFIRI in patients with advanced solid tumours” (British Journal of Cancer, 2018).

Tests used:
[1] = Pharmacokinetics of FOLFIRI components with and without veliparib (relative bioavailability); details: for 90% CIs for the relative bioavailability (Cmax and AUCt): presence (cycle 1 day 15) vs absence (cycle 1 day 1) of veliparib; for Cmax: human, plasma, intravenous, central value
Method: Treatment-emergent adverse events (TEAEs) were assessed from the time of study drug administration until 30 days following discontinuation of study drug. TEAEs were assessed according to the National Cancer Institute Common Terminology Criteria for Adverse Events version 4.0. In dose-escalation cohorts, blood samples were collected on day 15 of cycle 1 for veliparib PK, and on days 1 and 15 of cycle 1 for PK assessment of the FOLFIRI components irinotecan, SN-38, folinic acid (leucovorin), and 5-FU. Exploratory efficacy end points included objective response rate (ORR), time to disease progression (TTP), duration of overall response (DOR), and ECOG performance status. Objective response rate included confirmed complete response (CR) and partial response (PR). Objective response rate evaluation was based on Response Evaluation Criteria in Solid Tumours version 1.1. Objective response rate was calculated for all patients with one or more measurable lesions at baseline. Time to disease progression was defined as the number of days from the date the patient started study drug to the date of the patient’s disease progression. Duration of overall response was defined as the number of days from the day criteria were met for CR or PR (whichever was recorded first) to the date that PD was objectively documented. If a patient was still responding, the patient’s data were censored at the date of the last study visit at which a tumour assessment was performed. Analyses of change and/or percentage change from baseline for tumour size were performed for each scheduled post-baseline visit and for the final visit. ECOG performance status was assessed at all visits, with descriptive statistics summarised for each assessment. In addition, a mean change from baseline to each assessment time was summarised.
The sample size was based on clinical justification. No specific statistical hypothesis tests were planned, with descriptive statistics used for the analysis of safety, PK, and tumour response data. The study population for all safety and preliminary efficacy analyses included patients who received one or more doses of study medication. Data from parts 1–3 of the dose-escalation cohort were combined for assessment of the effect of veliparib on the PK of irinotecan, SN-38, and folinic acid. Linear mixed effects models were performed on natural logarithmically transformed maximum plasma concentration (Cmax) and area under the plasma or serum concentration-time curve (AUC) to compare exposure of irinotecan, SN-38, and folinic acid with and without the administration of veliparib. Point estimates and the corresponding 90% confidence intervals (CIs) of the ratio of central values with and without veliparib administration were calculated.

[2] = test system: patients with advanced solid tumours; details: human, in vivo
Excerpt: This phase 1 open-label, multicentre, dose-escalation, and safety expansion study evaluated veliparib in combination with bimonthly FOLFIRI in patients with advanced solid tumours. The primary objectives were to determine the maximum tolerated dose (MTD) and establish the recommended phase 2 dose (RP2D) of the combination therapy. Secondary objectives were to assess the safety and tolerability, PK profile, and exploratory efficacy of the combination for each of the FOLFIRI regimens. Patients received veliparib and bimonthly FOLFIRI in 28-day cycles. Veliparib was administered on days 15–19 in cycle 1 and on days 1–5 and 15–19 in subsequent cycles (Fig. 1). Patients with stable disease or better status could continue veliparib and bimonthly FOLFIRI at the investigator’s discretion until progressive disease (PD), unacceptable toxicity, or FOLFIRI discontinuation. The trial was registered with the ClinicalTrials.gov registry (NCT01123876) and was approved by appropriate independent ethics committees/institutional review boards prior to initiation. The study was performed in accordance with the 1964 Declaration of Helsinki and its later amendments. Written informed consent was obtained from all patients before study enrollment.
Dose escalation occurred in three parts to evaluate the MTD/RP2D of three different bimonthly FOLFIRI regimens in combination with veliparib (Fig. 1). A minimum of three patients per dose level were included for dose-toxicity modeling. In part 1, dose escalation began with veliparib twice daily (BID) on days 15–19 of cycle 1 (to allow the determination of single-agent PK for irinotecan, the active metabolite of irinotecan (SN-38), folinic acid, and 5-FU on cycle 1 day 1). In parts 2 and 3, dose escalation began with veliparib BID on day 15 of cycle 1. The differences in the dosing schedules of parts 1, 2, and 3 relate to dosing of irinotecan and 5-FU, and are detailed in Fig. 1. In all parts, veliparib continued to be administered on days 1–5 and 15–19 of each subsequent 28-day cycle. […]

[3] = test system: platinum-sensitive relapsed ovarian cancer and a BRCA1/2 mutation; set-up: method as in PMID 28754483; details: maintenance treatment, vs placebo; cited from earlier work
[4] = FOLFIRI + veliparib, cycle 1 day 15

SMILES | AUCt, central value, test [1, 4] [ng·h/mL] | Cmax, central value, test [1, 4] [ng/mL] | AUCt, central value, reference ([1]; FOLFIRI alone, cycle 1 day 1) [ng·h/mL] | Cmax, central value, reference ([1]; FOLFIRI alone, cycle 1 day 1) [ng/mL] | 90% CIs for the relative bioavailability (Cmax and AUCt) [1] | other results
O=c1[nH]cc(F)c(=O)[nH]1 [5-FU, 5-fluorouracil] |  |  |  |  |  | Median ratio of 5-FU concentrations, cycle 1 day 15 to cycle 1 day 1 ([1]; 2 h after the start of infusion): 1.03; Median ratio of 5-FU concentrations, cycle 1 day 15 to cycle 1 day 1 ([1]; 24 h after the start of infusion): 0.95; Tolerability of 400 mg/m^2 bolus 5-FU dose [2]: not tolerated
Nc1nc2c(c(=O)[nH]1)N(C=O)[C@H](CNc1ccc(C(=O)N[C@@H](CCC(=O)O)C(=O)O)cc1)CN2 [(R)-Leucovorin, dextroleucovorin] | 172200 | 39860 | 180400 | 41870 | within the pre-established boundaries of 0.80 to 1.25 | 
Nc1nc(=O)c2c([nH]1)NC[C@H](CNc1ccc(C(=O)N[C@@H](CCC(=O)O)C(=O)O)cc1)N2C=O [(S)-Leucovorin, levoleucovorin] | 28470 | 13270 | 29360 | 14220 | within the pre-established boundaries of 0.80 to 1.25 | 
CCc1c2c(nc3ccc(OC(=O)N4CCC(N5CCCCC5)CC4)cc13)-c1cc3c(c(=O)n1C2)COC(=O)[C@]3(O)CC [Irinotecan, irinotecan] |  |  |  |  | within the pre-established boundaries of 0.80 to 1.25 | AUC0–24, central value, reference ([1]; FOLFIRI alone, cycle 1 day 1): 10620 ng·h/mL; Cmax ([1]; reference, FOLFIRI alone, cycle 1 day 1): 1780 ng/mL; Cmax ([1]; test, FOLFIRI + veliparib, cycle 1 day 15): 1790 ng/mL
CCc1c2c(nc3ccc(O)cc13)-c1cc3c(c(=O)n1C2)COC(=O)[C@]3(O)CC [SN-38] | 157.8 | 17.65 | 157.9 | 18.31 | within the pre-established boundaries of 0.80 to 1.25 | 
O=C(c1cc(Cc2n[nH]c(=O)c3ccccc23)ccc1F)N1CCN(C(=O)C2CC2)CC1 [olaparib] |  |  |  |  |  | Median PFS [3]: 19.1 months
